{"source": "patent US9851346B2", "about": "“Chemical sensitivity screening test” (BRYSON PATENTS INC., priority 2014, dated 2017)", "key": {"[1]": {"test": "Strip test screening of various compounds (Example 17, FIGS. 10-11; strip composition not stated)", "protocol": "Now referring to FIG. 10, the pain relief medication—ASA, ibuprofen and acetaminophen were screened in the presence of alcohol (Ethanol)—50 ml water and 50 ml of 40% vol/vol ethanol.\nNow referring to FIG. 11, various sweetening agents or table salts were dissolved in 75 ml of filtered water and exposed to UV lamp for 3 minutes or 5 minutes."}, "[2]": {"test": "Strip test, Screening Composition 1 (Examples 1-5): fluorescence under UV after contact with dissolved specimen", "settings": "FIG. 9; increasing amounts dissolved in 50 ml of filtered water; strip test from Example 1", "from_the_text": "(§1) Prior to testing, the specimen of substance is placed directly into a solvent. Preferably, the solvent is a solvent such as distilled or filtered water. If the specimen is in tablet form, it should be crushed into a powder form and then added to the solvent. If the specimen is in other form, it is preferably disaggregated into smaller pieces. The powder or pieces are then left to sit in the solvent until dissolved, for a period ranging from a few second to minutes, hours or even days before it may be tested with the composition and/or strip test of the present invention. Preferably, the contact with the solvent is at least eight hours. A liquid or gel form can be put directly into the solvent. […]\nThe contacted test strip is then immediately observed under UV light in a dark room. In the presence of a predicted adverse reaction of the substance, the strip test will show the absence of fluorescence, or the fluorescence will decrease, or even completely disappear over a short period of time (about 90 seconds). […] According to an embodiment, the degree by which fluorescence disappears after initial exposure to the substance may be used to quantify the relative adverseness of the substance. For example, a slow disappearance of fluorescence represents a less adverse substance than a substance for which the fluorescence disappears rapidly over the course of the testing procedure. […]"}, "[3]": {"test": "Strip test, Screening Composition 2 (Examples 6-10): fluorescence under UV after contact with dissolved specimen", "settings": "FIGS. 3-4; observed under UV light, 3 to 5 minutes", "from_the_text": "as §1, with “substance to be tested” for “substance”, “powder” for “powder form”, “another” for “other”, “small” for “smaller”, “mixed in and/or dissolved” for “dissolved,”, “seconds” for “second”\nFor testing, the strip test prepared above is placed under UV light in a room with reduced lighting to allow the reaction to be observed, and is contacted with the specimen of substance prepared above. […] In the presence of a predicted adverse reaction of the substance, the strip test will show the absence of fluorescence or the fluorescence will decrease, or even completely disappear over the short period of time (about 3 to 5 minutes). […]\nSee FIGS. 3 and 4 for comparisons of adverse and non-adverse reaction results. The degree by which fluorescence disappears after initial exposure to the substance may be used to quantify the relative adverseness of the substance. […]"}, "[4]": {"test": "Strip test, Screening Composition 3 with Activator 1 / Activator 2 (Examples 11-16)", "settings": "FIGS. 5-8; 3 to 5 minutes under UV light", "protocol": "Once the urine has been provided, it needs to be cooled to a temperature of 18.3° C. This is the best temperature for testing in this case. When preparing for the test, the urine should be divided into two different groups. The first group is to add Activator 1 and observe the reaction. The second group is to add Activator 2 and observe the reaction.\nTo perform the Activator 1 test, take approximately 20 ml of urine and add 5 ml of the activator solution. Allow this to sit for 20 minutes under ultraviolet light. Once the 20 minutes has passed, place the strip test under ultraviolet light in a darkened room and apply approximately 1 ml of urine/Activator 1 solution onto the strip test. After the urine/Activator 1 solution has been applied to the strip test, one simply observes the reaction. […]\nSee FIGS. 5 to 8 for comparisons of presence and absence of the contaminant biomarkers (protein crystals) reaction results. The degree by which fluorescence disappears after initial exposure of urine/activator to the strip test may be used to quantify the relative presence of the factor in the urine. For example, a slow disappearance of fluorescence represents less presence of the pesticide biomarker than a urine/activator sample for which the fluorescence disappears rapidly over the course of the testing procedure."}}, "data": [{"smiles": "[Cl-].[Na+]", "note": "[Sodium chloride (iodized), Sodium chloride]", "values": [{"measurement": "Adverseness / fluorescence indicated by strip test", "setting": "[1]; FIG. 11, dissolved in 75 ml of filtered water, exposed to UV lamp for 3 minutes or 5 minutes", "result": "appears to not be adverse"}]}, {"smiles": "CC(C)Cc1ccc(C(C)C(=O)O)cc1", "note": "(stereo not shown) [ibuprofen]", "values": [{"measurement": "Adverseness indicated by strip test", "setting": "[2]", "result": "is not"}, {"measurement": "Effect of the medication on adverseness in the presence of alcohol (strip test)", "setting": "[1]", "result": "diminishes adverseness to varying degrees"}]}, {"smiles": "CCO", "note": "[Alcohol, Ethanol]", "values": [{"measurement": "Adverseness indicated by strip test, alcohol alone", "setting": "[1]", "result": "appears to be adverse"}]}, {"smiles": "OC[C@H]1O[C@H](O[C@]2(CCl)O[C@H](CCl)[C@@H](O)[C@@H]2O)[C@H](O)[C@@H](O)[C@H]1Cl", "note": "[Sucralose]", "values": [{"measurement": "Adverseness / fluorescence indicated by strip test, 5 minute exposure", "setting": "[1]", "result": "depleted fluorescence, indicative of a mild adverse effect"}, {"measurement": "Adverseness indicated by strip test, initially", "setting": "[1]", "result": "initially not adverse"}]}, {"smiles": "CC(=O)Nc1ccc(O)cc1", "note": "[acetaminophen]", "values": [{"measurement": "Effect of the medication on adverseness in the presence of alcohol (strip test)", "setting": "[1]", "result": "diminishes adverseness to varying degrees"}]}, {"smiles": "CC(=O)Oc1ccccc1C(=O)O", "note": "[ASA]", "values": [{"measurement": "Adverseness indicated by strip test", "setting": "[2]", "result": "appears to be adverse"}, {"measurement": "Effect of the medication on adverseness in the presence of alcohol (strip test)", "setting": "[1]", "result": "diminishes adverseness to varying degrees"}]}, {"smiles": "CCOc1nc2cccc(C(=O)O)c2n1Cc1ccc(-c2ccccc2-c2nnn[nH]2)cc1", "note": "[candesartan 8 mg, candesartan]", "values": [{"measurement": "Strip test appearance (bright yellow glow = does not cause an adverse effect; dark color = may cause an adverse effect)", "setting": "[3]", "result": "glows a bright yellow color"}, {"measurement": "Strip test appearance (bright yellow glow = does not cause an adverse effect; dark color = may cause an adverse effect)", "setting": "[4]", "result": "glows a bright yellow color"}]}, {"smiles": "C[C@H](N)Cc1ccccc1", "note": "[Dextroamphetamine XR 5 mg, Dextroamphetamine]", "values": [{"measurement": "Strip test appearance (bright yellow glow = does not cause an adverse effect; dark color = may cause an adverse effect)", "setting": "[3]", "result": "turns a dark color"}, {"measurement": "Strip test appearance (bright yellow glow = does not cause an adverse effect; dark color = may cause an adverse effect)", "setting": "[4]", "result": "turns a dark color"}]}]}
